From patent US20230146395A1, “Substituted Pyrimidines and Uses Thereof” (Verge Analytics, Inc., priority 2020, published 2023)

molecular target: T1, Full length human recombinant PIKFYVE (Homo sapiens, UniProt Q9Y2I7); assay: Inhibition of PIKfyve (microfluidic electrophoresis kinase assay, PI3P/PS substrate); assay type: biochemical; settings: 12 concentrations
T1 construct: Full length human recombinant PIKFYVE; purchased Carna Biosciences (Kobe, Japan); host or cells: baculovirus expression system
Method in brief: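 GST-tagged full-length human PIKFYVE (baculovirus; 2 nM) with fluorescent PI3P/PS (1 μM PI3P) and […] in pH 7.5 HEPES with Mg2+/Mn2+, 1% DMSO, 3 h at room temperature. PI(3,5)P product/substrate ratio read by microfluidic electrophoresis; 12-point % inhibition versus no-enzyme and DMSO controls.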

T1 sequence (Q9Y2I7 whole entry): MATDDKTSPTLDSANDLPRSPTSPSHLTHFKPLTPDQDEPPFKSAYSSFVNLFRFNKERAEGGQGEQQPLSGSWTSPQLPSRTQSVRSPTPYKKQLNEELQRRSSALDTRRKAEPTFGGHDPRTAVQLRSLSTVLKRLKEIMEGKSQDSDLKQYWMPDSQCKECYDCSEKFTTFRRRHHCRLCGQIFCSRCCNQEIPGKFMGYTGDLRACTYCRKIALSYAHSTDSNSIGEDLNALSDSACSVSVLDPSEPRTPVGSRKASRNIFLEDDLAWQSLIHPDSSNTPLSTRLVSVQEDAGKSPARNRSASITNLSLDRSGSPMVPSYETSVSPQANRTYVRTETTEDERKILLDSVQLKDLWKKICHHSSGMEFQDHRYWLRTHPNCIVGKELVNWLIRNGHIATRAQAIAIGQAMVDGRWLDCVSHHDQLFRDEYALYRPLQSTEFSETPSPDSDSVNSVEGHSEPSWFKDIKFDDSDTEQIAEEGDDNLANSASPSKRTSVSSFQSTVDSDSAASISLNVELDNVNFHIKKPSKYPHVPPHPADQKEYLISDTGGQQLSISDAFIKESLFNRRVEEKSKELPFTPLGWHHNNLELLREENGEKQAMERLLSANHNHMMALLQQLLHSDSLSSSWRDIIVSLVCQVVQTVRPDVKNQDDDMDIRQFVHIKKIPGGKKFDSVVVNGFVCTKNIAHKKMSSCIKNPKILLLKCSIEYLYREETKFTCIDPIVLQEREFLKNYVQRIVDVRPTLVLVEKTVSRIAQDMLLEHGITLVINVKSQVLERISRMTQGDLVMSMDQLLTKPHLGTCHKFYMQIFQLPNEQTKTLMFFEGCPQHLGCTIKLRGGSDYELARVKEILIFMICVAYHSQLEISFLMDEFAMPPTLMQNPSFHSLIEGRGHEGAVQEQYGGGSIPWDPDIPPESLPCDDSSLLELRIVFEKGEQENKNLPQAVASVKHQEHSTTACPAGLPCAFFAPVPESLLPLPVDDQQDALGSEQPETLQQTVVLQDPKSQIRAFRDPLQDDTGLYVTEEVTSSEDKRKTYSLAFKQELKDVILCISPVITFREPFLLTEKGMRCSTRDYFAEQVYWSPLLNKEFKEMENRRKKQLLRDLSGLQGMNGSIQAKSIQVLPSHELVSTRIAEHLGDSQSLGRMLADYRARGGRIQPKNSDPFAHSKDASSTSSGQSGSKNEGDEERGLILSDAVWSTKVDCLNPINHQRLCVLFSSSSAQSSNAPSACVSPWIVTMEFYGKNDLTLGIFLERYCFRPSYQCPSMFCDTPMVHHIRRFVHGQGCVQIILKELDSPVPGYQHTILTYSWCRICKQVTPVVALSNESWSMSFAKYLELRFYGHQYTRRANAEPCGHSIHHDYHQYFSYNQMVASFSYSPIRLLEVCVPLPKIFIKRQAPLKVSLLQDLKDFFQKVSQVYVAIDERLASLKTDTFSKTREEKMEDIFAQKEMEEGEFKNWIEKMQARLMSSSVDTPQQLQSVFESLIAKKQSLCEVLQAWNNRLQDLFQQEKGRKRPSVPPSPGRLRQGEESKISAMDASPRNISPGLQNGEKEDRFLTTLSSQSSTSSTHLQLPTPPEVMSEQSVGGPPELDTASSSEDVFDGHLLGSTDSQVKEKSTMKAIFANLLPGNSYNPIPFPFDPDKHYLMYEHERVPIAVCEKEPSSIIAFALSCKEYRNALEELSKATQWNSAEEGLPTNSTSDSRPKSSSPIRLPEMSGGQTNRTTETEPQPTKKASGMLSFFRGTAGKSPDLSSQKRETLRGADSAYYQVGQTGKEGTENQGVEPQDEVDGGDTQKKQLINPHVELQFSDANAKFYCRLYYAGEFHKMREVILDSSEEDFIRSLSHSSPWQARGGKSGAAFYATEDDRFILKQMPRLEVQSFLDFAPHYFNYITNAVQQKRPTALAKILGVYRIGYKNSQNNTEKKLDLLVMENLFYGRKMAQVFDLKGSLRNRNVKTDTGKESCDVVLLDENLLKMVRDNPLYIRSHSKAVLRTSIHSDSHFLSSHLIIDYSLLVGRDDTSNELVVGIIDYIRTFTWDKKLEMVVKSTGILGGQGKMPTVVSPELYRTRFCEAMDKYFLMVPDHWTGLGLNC

SMILES | IC50 [nM]
COCCNC(=O)c1cc2nc(-n3cc(-c4ccccc4)cn3)nc(N3CCOCC3)c2o1 [Compound 118, N-(2-methoxyethyl)-4-morpholino-2-(4-phenyl-1H-pyrazol-1-yl)furo[3,2-d]pyrimidine-6-carboxamide] | 311
Cc1cccc(-c2cnn(-c3nc(N4CC(F)(F)OC(F)(F)C4)c4oc(-c5cccnc5)cc4n3)c2)c1 [Compound 133, 6-(pyridin-3-yl)-4-(2,2,6,6-tetrafluoromorpholino)-2-(4-(m-tolyl)-1H-pyrazol-1-yl)furo[3,2-d]pyrimidine] | > 20000
CCNC(=O)c1cc2nc(-n3cc(-c4cccc(C)c4)cn3)nc(N3CC(F)(F)OC(F)(F)C3)c2o1 [Compound 134, N-ethyl-4-(2,2,6,6-tetrafluoromorpholino)-2-(4-(m-tolyl)-1H-pyrazol-1-yl)furo[3,2-d]pyrimidine-6-carboxamide] | > 20000
O=C(c1cc2nc(Nc3cc(-c4ccccc4)[nH]n3)nc(N3CCOCC3)c2o1)N1CCOCC1 [Compound 135, morpholino(4-morpholino-2-((5-phenyl-1H-pyrazol-3-yl)amino)furo[3,2-d]pyrimidin-6-yl)methanone] | 147
CN(C)C(=O)c1cc2nc(Nc3cc(-c4ccccc4)[nH]n3)nc(N3CCOCC3)c2o1 [Compound 137, N,N-dimethyl-4-morpholino-2-((5-phenyl-1H-pyrazol-3-yl)amino)furo[3,2-d]pyrimidine-6-carboxamide] | 95
O=C(O)c1cc2nc(Nc3cc(-c4ccccc4)[nH]n3)nc(N3CCOCC3)c2o1 [Compound 141, 4-morpholino-2-((5-phenyl-1H-pyrazol-3-yl)amino)furo[3,2-d]pyrimidine-6-carboxylic acid] | 252
c1ccc(-c2cc(Nc3nc(N4CCOCC4)c4occc4n3)n[nH]2)cc1 [Compound 142, 4-morpholino-N-(5-phenyl-1H-pyrazol-3-yl)furo[3,2-d]pyrimidin-2-amine] | 145
Cc1cccc(-c2cnn(-c3nc(N4CCOCC4)c4oc(C(=O)NC5CC5)c(C(F)(F)F)c4n3)c2)c1 [Compound 147, N-cyclopropyl-4-morpholino-2-(4-(m-tolyl)-1H-pyrazol-1-yl)-7-(trifluoromethyl)furo[3,2-d]pyrimidine-6-carboxamide] | 1030
Cc1cccc(-c2ccn(-c3nc(N4CCOCC4=O)c4oc(-c5ccccn5)cc4n3)n2)c1 [Compound 148] | 3860
CCNC(=O)c1cc2nc(-n3cc(-c4cccc(C)c4)cn3)nc(N3CCOCC3=O)c2o1 [Compound 149, N-ethyl-2-[4-(m-tolyl)pyrazol-1-yl]-4-(3-oxomorpholin-4-yl)furo[3,2-d]pyrimidine-6-carboxamide] | > 20000
Cc1cccc(-c2cnn(-c3nc(N4CCOCC4)c4oc(C(=O)NCCS(C)(=O)=O)cc4n3)c2)c1 [Compound 150, N-(2-(methylsulfonyl)ethyl)-4-morpholino-2-(4-(m-tolyl)-1H-pyrazol-1-yl)furo[3,2-d]pyrimidine-6-carboxamide] | 103
CN1CCC(NC(=O)c2cc3nc(-n4ccc(-c5ccccc5)n4)nc(N4CCOCC4)c3o2)CC1 [Compound 151, N-(1-methyl-4-piperidyl)-4-morpholino-2-(3-phenylpyrazol-1-yl)furo[3,2-d]pyrimidine-6-carboxamide] | 446
CCNC(=O)c1cc2nc(-n3ccc(-c4ccccc4)n3)nc(N3CCOCC3)c2o1 [Compound 152, N-ethyl-4-morpholino-2-(3-phenyl-1H-pyrazol-1-yl)furo[3,2-d]pyrimidine-6-carboxamide] | 306
c1ccc(-c2ccn(-c3nc(N4CCOCC4)c4oc(-c5cccnc5)cc4n3)n2)cc1 [Compound 156, 4-morpholino-2-(3-phenyl-1H-pyrazol-1-yl)-6-(pyridin-3-yl)furo[3,2-d]pyrimidine] | 152
c1ccc(-c2ccn(-c3nc(N4CCOCC4)c4oc(-c5ccncc5)cc4n3)n2)cc1 [Compound 158, 4-morpholino-2-(3-phenylpyrazol-1-yl)-6-(4-pyridyl)furo[3,2-d]pyrimidine] | 160
O=C(NCC1COC1)c1cc2nc(-n3ccc(-c4ccccc4)n3)nc(N3CCOCC3)c2o1 [Compound 159, 4-morpholino-N-(oxetan-3-ylmethyl)-2-(3-phenylpyrazol-1-yl)furo[3,2-d]pyrimidine-6-carboxamide] | 943
O=C(NCC1COC1)c1cc2nc(-n3cc(-c4ccccc4)cn3)nc(N3CCOCC3)c2o1 [Compound 164, 4-morpholino-N-(oxetan-3-ylmethyl)-2-(4-phenyipyrazol-1-yl)furo[3,2-d]pyrimidine-6-carboxamide] | 162

Results, then the compound that gave them:

IC50 [nM] | SMILES
91.5 | CNC(=O)c1cc2nc(-n3ccc(-c4cccc(C)c4)n3)nc(N3CCOCC3)c2o1 [Compound 92, N-methyl-4-morpholino-2-(3-(m-tolyl)-1H-pyrazol-1-yl)furo[3,2-d]pyrimidine-6-carboxamide]
86.7 | Cc1cccc(-c2ccn(-c3nc(N4CCOCC4)c4oc(C(N)=O)cc4n3)n2)c1 [Compound 94, 4-morpholino-2-(3-(m-tolyl)-1H-pyrazol-1-yl)furo[3,2-d]pyrimidine-6-carboxamide]
78.7 | Cc1cccc(-c2ccn(-c3nc(N4CCOCC4)c4oc(C(=O)NS(C)(=O)=O)cc4n3)n2)c1 [Compound 98, N-(methylsulfonyl)-4-morpholino-2-(3-(m-tolyl)-1H-pyrazol-1-yl)furo[3,2-d]pyrimidine-6-carboxamide]
78.3 | CONC(=O)c1cc2nc(-n3ccc(-c4cccc(C)c4)n3)nc(N3CCOCC3)c2o1 [Compound 99, N-methoxy-4-morpholino-2-(3-(m-tolyl)-1H-pyrazol-1-yl)fur[3,2-d]pyrimidine-6-carboxamide]
49.3 | O=C(NCC1CC1)c1cc2nc(-n3cc(-c4ccccc4)cn3)nc(N3CCOCC3)c2o1 [Compound 116, N-(cyclopropylmethy 1)-4-morpholino-2-(4-phenyl-1H-pyrazol-1-yl)furo[3,2-d]pyrimidine-6-carboxamide]
12.7 | Cc1cccc(-c2ccn(-c3nc(N4CCOCC4)c4oc(-c5ccccn5)c(C)c4n3)n2)c1 [Compound 122, 7-methyl-4-morpholino-6-(pyridin-2-yl)-2-(3-(m-tolyl)-1H-pyrazol-1-yl)furo[3,2-d]pyrimidine]
66.2 | Cc1cccc(-c2cnn(-c3nc(N4CCOCC4)c4oc(C(=O)NCCS(=O)(=O)N(C)C)cc4n3)c2)c1 [Compound 128, N-(2-(N,N-dimethylsulfamoyl)ethyl)-4-morpholino-2-(4-(m-tolyl)-1H-pyrazol-1-yl)furo[3,2-d]pyrimidine-6-carboxamide]
94 | CN1CCN(C(=O)c2cc3nc(Nc4cc(-c5ccccc5)[nH]n4)nc(N4CCOCC4)c3o2)CC1 [Compound 136, (4-methylpiperazin-1-yl)(4-morpholino-2-((5-phenyl-1H-pyrazol-3-yl)amino)furo[3,2-d]pyrimidin-6-yl)methanone]
33 | CNC(=O)c1cc2nc(Nc3cc(-c4ccccc4)[nH]n3)nc(N3CCOCC3)c2o1 [Compound 138, N-methyl-4-morpholino-2-((5-phenyl-1H-pyrazol-3-yl)amino)furo[3,2-d]pyrimidine-6-carboxamide]
22 | CON(C)C(=O)c1cc2nc(Nc3cc(-c4ccccc4)[nH]n3)nc(N3CCOCC3)c2o1 [Compound 139, N-methoxy-N-methyl-4-morpholino-2-((5-phenyl-1H-pyrazol-3-yl)amino)furo[3,2-d]pyrimidine-6-carboxamide]
43 | COCCNC(=O)c1cc2nc(Nc3cc(-c4ccccc4)[nH]n3)nc(N3CCOCC3)c2o1 [Compound 140, N-(2-methoxyethyl)-4-morpholino-2-((5-phenyl-1H-pyrazol-3-yl)amino)furo[3,2-d]pyrimidine-6-carboxamide]
24 | O=C(NC1CC1)c1cc2nc(-n3ccc(-c4ccccc4)n3)nc(N3CCOCC3)c2o1 [Compound 153, N-cyclopropyl-4-morpholino-2-(3-phenylpyrazol-1-yl)furo[3,2-d]pyrimidine-6-carboxamide]
77.3 | CCNC(=O)c1cc2nc(-n3cc(-c4ccccc4)cn3)nc(N3CCOCC3)c2o1 [Compound 154, N-ethyl-4-morpholino-2-(4-phenylpyrazol-1-yl)furo[3,2-d]pyrimidine-6-carboxamide]
70.6 | c1ccc(-c2ccn(-c3nc(N4CCOCC4)c4oc(-c5ccccn5)cc4n3)n2)cc1 [Compound 155, 4-morpholino-2-(3-phenylpyrazol-1-yl)-6-(2-pyridyl)furo[3,2-d]pyrimidine]
88.8 | CN1CCC(NC(=O)c2cc3nc(-n4cc(-c5ccccc5)cn4)nc(N4CCOCC4)c3o2)CC1 [Compound 157, N-(1-methylpiperidin-4-yl)-4-morpholino-2-(4-phenyl-1H-pyrazol-1-yl)furo[3,2-d]pyrimidine-6-carboxamide]
61.7 | c1ccc(-c2cnn(-c3nc(N4CCOCC4)c4oc(-c5cccnc5)cc4n3)c2)cc1 [Compound 160, 4-morpholino-2-(4-phenylpyrazol-1-yl)-6-(3-pyridyl)furo[3,2-d]pyrimidine]
40.4 | c1ccc(-c2cnn(-c3nc(N4CCOCC4)c4oc(-c5ccccn5)cc4n3)c2)cc1 [Compound 161, 4-morpholino-2-(4-phenylpyrazol-1-yl)-6-(2-pyridyl)furo[3,2-d]pyrimidine]
17.8 | Cc1cc(-c2cc3nc(-n4ccc(-c5ccccc5)n4)nc(N4CCOCC4)c3o2)[nH]n1 [Compound 162, 6-(3-methyl-1H-pyrazol-5-yl)-4-morpholino-2-(3-phenylpyrazol-1-yl)furo[3,2-d]pyrimidine]
23.5 | Cc1cc(-c2cc3nc(-n4cc(-c5ccccc5)cn4)nc(N4CCOCC4)c3o2)[nH]n1 [Compound 163, 6-(3-methyl-1H-pyrazol-5-yl)-4-morpholino-2-(4-phenylpyrazol-1-yl)furo[3,2-d]pyrimidine]
